Paper PMC8518382, “Identification of a Bromodomain‐like Region in 15‐Lipoxygenase‐1 Explains Its Nuclear Localization” (Angewandte Chemie (International Ed. in English), 2021)

Assays:
Format in all cases: biochemical
Conditions in all cases: HRP-streptavidin detection, read-out: EC50 of labeling
[1] = molecular target: T1, 5-LOX (Homo sapiens, UniProt P09917); assay: Sandwich ELISA of Labelox B biotinylation in A549 cell lysate, 5-LOX capture
T1 construct: the endogenous LOXs were captured on an anti‐LOX antibody precoated 96‐well plate; endogenous in cells; host or cells: A549 cell lysate
T1 sequence (P09917 1-674): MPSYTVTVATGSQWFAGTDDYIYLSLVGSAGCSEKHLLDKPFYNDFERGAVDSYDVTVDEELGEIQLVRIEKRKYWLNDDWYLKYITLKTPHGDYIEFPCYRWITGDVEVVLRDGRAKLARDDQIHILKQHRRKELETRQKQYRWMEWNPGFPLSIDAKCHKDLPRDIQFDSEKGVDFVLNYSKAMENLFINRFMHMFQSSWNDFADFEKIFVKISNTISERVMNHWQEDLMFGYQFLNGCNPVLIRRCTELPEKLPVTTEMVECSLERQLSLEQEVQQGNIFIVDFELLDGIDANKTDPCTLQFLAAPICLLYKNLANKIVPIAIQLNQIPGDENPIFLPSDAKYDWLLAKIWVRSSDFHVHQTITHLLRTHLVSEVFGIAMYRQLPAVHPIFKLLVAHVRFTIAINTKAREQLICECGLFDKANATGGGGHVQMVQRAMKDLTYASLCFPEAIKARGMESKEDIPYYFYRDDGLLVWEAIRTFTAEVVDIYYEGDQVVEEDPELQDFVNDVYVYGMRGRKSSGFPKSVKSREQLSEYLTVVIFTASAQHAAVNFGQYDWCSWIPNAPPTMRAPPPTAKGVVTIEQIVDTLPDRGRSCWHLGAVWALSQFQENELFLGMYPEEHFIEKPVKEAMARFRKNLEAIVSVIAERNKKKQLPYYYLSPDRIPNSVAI
Method: (§1) Labelox B efficiently labels endogenous LOXs. Lipoxygenase labeling by Labelox B was investigated using cell‐based assays. As a first step, labeling efficiency was estimated in intact RAW 264.7 macrophage cells that were treated with Labelox B in concentrations ranging between 1 μM and 100 μM with incubation times between 0.5 h and 6 h. […] As a next step, a sandwich ELISA assay was established in order to find proof that probe Labelox B is indeed labeling proteins with lipoxygenase enzyme activity. Towards this aim, A549 cell lysates were treated with sub‐micromolar to micromolar concentrations of Labelox B. Subsequently, the endogenous LOXs were captured on an anti‐LOX antibody precoated 96‐well plate followed by detection of Labelox B mediated biotinylation using HRP‐conjugated streptavidin. […] Furthermore, probe Labelox B enabled visualization of localized LOX activity in living cells (Figure 2 c). […] The fluorescence intensity increased with increasing doses of Labelox B and labeling was observed throughout the cells in the cytoplasm and the nucleus of A549.
(§2) Figure 2 Labelox B labels endogenous LOXs in a dose‐ and time‐dependent manner. a, b) Western blot analysis of Labelox B labeled LOXs in intact RAW 264.7 for indicated doses and time points. […] The pictures were captured by a Leica DM4000b fluorescence microscope.

[2] = molecular target: T2, 15-LOX-2 (Homo sapiens, UniProt O15296); assay: Sandwich ELISA of Labelox B biotinylation in A549 cell lysate, 15-LOX-2 capture
T2 construct: endogenous in cells; host or cells: A549 cell lysate
T2 sequence (O15296 1-676): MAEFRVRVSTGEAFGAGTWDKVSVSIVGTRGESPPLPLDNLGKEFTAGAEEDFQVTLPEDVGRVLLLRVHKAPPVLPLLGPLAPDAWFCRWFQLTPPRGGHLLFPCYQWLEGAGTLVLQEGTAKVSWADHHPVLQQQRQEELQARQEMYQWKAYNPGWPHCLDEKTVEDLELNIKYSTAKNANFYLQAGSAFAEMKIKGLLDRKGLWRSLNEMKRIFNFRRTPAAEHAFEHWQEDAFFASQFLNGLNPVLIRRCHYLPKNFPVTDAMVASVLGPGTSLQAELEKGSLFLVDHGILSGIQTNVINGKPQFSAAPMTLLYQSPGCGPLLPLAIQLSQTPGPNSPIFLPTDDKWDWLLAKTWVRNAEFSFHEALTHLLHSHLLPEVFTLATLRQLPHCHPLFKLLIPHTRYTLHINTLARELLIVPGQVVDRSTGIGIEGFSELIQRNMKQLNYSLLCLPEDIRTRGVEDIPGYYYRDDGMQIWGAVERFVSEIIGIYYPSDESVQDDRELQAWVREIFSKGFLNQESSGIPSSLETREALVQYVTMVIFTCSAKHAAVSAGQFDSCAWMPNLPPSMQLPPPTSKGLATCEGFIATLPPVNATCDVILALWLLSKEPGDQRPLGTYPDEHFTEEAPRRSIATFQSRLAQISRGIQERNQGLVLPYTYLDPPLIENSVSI
Method: as §1, §2

[3] = molecular target: T3, 15-LOX-1 (Homo sapiens, UniProt P16050); assay: Sandwich ELISA of Labelox B biotinylation in A549 cell lysate, 15-LOX-1 capture; set-up: the endogenous LOXs were captured on an anti‐LOX antibody precoated 96‐well plate; endogenous in cells; host or cells: A549 cell lysate
T3 sequence (P16050 1-662): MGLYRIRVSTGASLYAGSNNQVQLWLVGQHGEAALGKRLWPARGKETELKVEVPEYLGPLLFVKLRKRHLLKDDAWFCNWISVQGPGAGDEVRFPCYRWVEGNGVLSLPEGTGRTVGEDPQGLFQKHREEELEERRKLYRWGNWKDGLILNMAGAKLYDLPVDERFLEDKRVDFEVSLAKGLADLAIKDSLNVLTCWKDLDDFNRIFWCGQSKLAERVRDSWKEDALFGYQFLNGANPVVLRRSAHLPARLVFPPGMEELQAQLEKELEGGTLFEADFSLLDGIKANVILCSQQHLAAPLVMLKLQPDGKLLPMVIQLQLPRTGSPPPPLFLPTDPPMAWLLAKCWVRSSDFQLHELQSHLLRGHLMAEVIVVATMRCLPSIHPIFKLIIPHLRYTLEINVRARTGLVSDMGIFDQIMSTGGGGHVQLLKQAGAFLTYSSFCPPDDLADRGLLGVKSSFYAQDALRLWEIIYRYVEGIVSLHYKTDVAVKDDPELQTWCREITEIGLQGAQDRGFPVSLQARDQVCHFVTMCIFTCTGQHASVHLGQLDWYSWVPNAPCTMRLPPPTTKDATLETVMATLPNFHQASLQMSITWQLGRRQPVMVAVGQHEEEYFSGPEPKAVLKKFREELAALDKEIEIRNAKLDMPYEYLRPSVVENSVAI
Method: as §1, §2

Measured: EC50

CCCCCC#CCC#CCOC(=O)CCCC[C@@H]1SC[C@@H]2NC(=O)N[C@@H]21 [Labelox B (3)]
~3.5 µM: all assays above
